Data published in US20210292330A1, “PYRROLIDINE-FUSED HETEROCYCLES” (Erasca, Inc., priority 2020, published 2021).

Biological target: T1, KRAS 4B G12C protein (Homo sapiens, UniProt P01116, G12C)
T1 construct: This protein contained 188 amino acids in total, including an N-terminal 6-Histidine tag; made in house; host or cells: E. coli BL21
Assay: In vitro covalent adduct formation (CAF) assay by LC-MS
Format: binding
Details: compound 10 μM, protein 5 μM, 22° C., percentage of protein bound by the compound
Outline: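 Recombinant His-TEV-tagged KRAS 4B G12C (residues 1-169, E. coli) at 5 μM in Tris-buffered saline pH 7.4 was incubated with 10 μM compound (4% DMSO) at 22° C. for one hour, sampling over time. Intact-mass LC-MS free:adduct ratios gave % protein bound; duplicates.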

Compound	CAF (10 minutes/60 minutes) at 10 micromolar: 10 minutes	CAF (10 minutes/60 minutes) at 10 micromolar: 60 minutes
CN1CCC[C@H]1COc1nc2c(c(N3CCN(C(=O)C45CC4C5)[C@@H](CC#N)C3)n1)CN(C1CCc3ccccc31)C2 (stereo partly drawn) [1-316]	0%/ 0%	0%/ 0%
CN1CCC[C@H]1COc1nc2c(c(N3CCN(C(=O)C45CC4C5)[C@@H](CC#N)C3)n1)CN(Cc1ccccc1Cl)C2 (stereo partly drawn) [1-317]	0%/ 0%	0%/ 0%
C=CC(=O)N1CCN(c2nc(OC[C@@H]3CCCN3C)nc3c2CN(Cc2cccc4ncccc24)C3)C[C@@H]1CC#N [1-318]	1%	11%
C=C(F)C(=O)N1CCN(c2nc(OC[C@@H]3CCCN3C)nc3c2CN(Cc2cccc4ncccc24)C3)C[C@@H]1CC#N [1-319]	0%/ 0%	0%/ 0%
C=C(F)C(=O)N1CCN(c2nc(OC[C@@H]3CCCN3C)nc3c2CN(Cc2c(Cl)ccc4nc[nH]c24)C3)C[C@@H]1CC#N [1-320]	76%	91%
C=CC(=O)N1CCN(c2nc(OC[C@@H]3CCCN3C)nc3c2CN(Cc2c(Cl)ccc(O)c2Cl)C3)C[C@@H]1CC#N [1-321]	88%	90%
C=C(F)C(=O)N1CCN(c2nc(OC[C@@H]3CCCN3C)nc3c2CN(Cc2c(Cl)ccc(O)c2Cl)C3)C[C@@H]1CC#N [1-322]	76%	94%
C=CC(=O)N1CCN(c2nc(OC[C@@H]3CCCN3C)nc3c2CN(Cc2cc(O)c(C)cc2Cl)C3)C[C@@H]1CC#N [1-323]	72%	93%
C=CC(=O)N1CCN(c2nc(OC[C@@H]3CCCN3C)nc3c2CN(Cc2c(C)cc(C)c(O)c2C)C3)C[C@@H]1CC#N [1-324]	31%	78%
C=C(F)C(=O)N1CCN(c2nc(OC[C@@H]3CCCN3C)nc3c2CN(Cc2c(C)cc(C)c(O)c2C)C3)C[C@@H]1CC#N [1-325]	0%	3%
C=C(F)C(=O)N1CCN(c2nc(OC[C@@H]3CCCN3C)nc3c2CN(Cc2cc(O)c(Cl)cc2C)C3)C[C@@H]1CC#N [1-326, 2-[(2S)-4-{6-[(4-chloro-5-hydroxy-2-methylphenyl)methyl]-2-{[(2S)-1-methylpyrrolidin-2-yl]methoxy}-5H,7H-pyrrolo[3,4-d]pyrimidin-4-yl}-1-(2-fluoroprop-2-enoyl)piperazin-2-yl]acetonitrile]	0%	2%
C=C(F)C(=O)N1CCN(c2nc(OC[C@@H]3CCCN3C)nc3c2CN(Cc2cc(O)c(C)cc2C)C3)C[C@@H]1CC#N [1-327]	0%	3%
C=CC(=O)N1C2CC(=O)CC1CN(c1nc(OC[C@@H]3CCCN3C)nc3c1CN(Cc1cc(O)ccc1Cl)C3)C2 [1-328]	14%	39%
C=C(F)C(=O)N1CCN(c2nc(OC[C@@H]3CCCN3C)nc3c2CN(Cc2cc(O)c(C)cc2Cl)C3)C[C@@H]1CC#N [1-329]	2%	22%
C=CC(=O)N1CCN(c2nc(OC[C@@H]3CCCN3C)nc3c2CN(Cc2cc(O)c(Cl)cc2Cl)C3)C[C@@H]1CC#N [1-330]	52%	86%
C=CC(=O)N1CCN(c2nc(OC[C@@H]3CCCN3C)nc3c2CN(Cc2cc(O)c(Cl)cc2C)C3)C[C@@H]1CC#N [1-331]	32%	76%
C=C(F)C(=O)N1CCN(c2nc(OC[C@@H]3CCCN3C)nc3c2CN(Cc2cc(N)ncc2Cl)C3)C[C@@H]1CC#N [1-332]	6%	48%
C=CC(=O)N1[C@H](C)CN(c2nc(OC[C@@H]3CCCN3C)nc3c2CN(Cc2c(Cl)ccc(O)c2C)C3)C[C@@H]1C [1-333]	17%	59%
C=C(F)C(=O)N1CCN(c2nc(OC[C@@H]3CCCN3C)nc3c2CN(Cc2nc(N)cc(C)c2C(F)(F)F)C3)C[C@@H]1CC#N [1-334]	79%	86%
C=CC(=O)N1CCN(c2nc(OC[C@@H]3CCCN3C)nc3c2CN(Cc2nc(N)cc(C)c2C(F)(F)F)C3)C[C@@H]1CC#N [1-335]	92%	95%
C=CC(=O)N1CCN(c2nc(O[C@@H]3CN(C)C[C@H]3OC)nc3c2CN(Cc2cc(O)ccc2Cl)C3)C2COCC21 (stereo partly drawn) [1-336]	0%	9%
C=C(F)C(=O)N1CCN(c2nc(OC[C@@H]3CCCN3C)nc3c2CN(C2CCc4ccc(Cl)c(Cl)c42)C3)C[C@@H]1CC#N (stereo partly drawn) [1-337]	27%	74%
C=C(F)C(=O)N1CCN(c2nc(OC[C@@H]3CCCN3C)nc3c2CN(Cc2nc(N)ccc2Cl)C3)C[C@@H]1CC#N [1-339]	83%	92%
C=C(F)C(=O)N1CCN(c2nc(OC[C@@H]3CCCN3C)nc3c2CN(Cc2cc(NC)ncc2Cl)C3)C[C@@H]1CC#N [1-340]	0%	7%
C=CC(=O)N1[C@H](C)CN(c2nc(OC[C@@H]3CCCN3C)nc3c2CN(Cc2c(Cl)ccc(O)c2C)C3)C[C@H]1C [1-341]	0%/ 0%	0%/ 0%
C=CC(=O)N1CCN(c2nc(OC[C@@H]3CCCN3C)nc3c2CN(C2CCc4ccc(O)c(Cl)c42)C3)C[C@@H]1CC#N (stereo partly drawn) [1-342]	80%	87%
C=C(F)C(=O)N1CCN(c2nc(OC[C@@H]3CCCN3C)nc3c2CN(Cc2c[nH]nc2C)C3)C[C@@H]1CC#N [1-343]	0%/ 0%	0%/ 0%
C=C(F)C(=O)N1CCN(c2nc(OC[C@@H]3CCCN3C)nc3c2CN(Cc2n[nH]cc2C)C3)C[C@@H]1CC#N [1-344]	0%	2%
C=C(F)C(=O)N1CCN(c2nc(OC[C@@H]3CCCN3C)nc3c2CN(Cc2n[nH]c4ccccc24)C3)C[C@@H]1CC#N [1-345]	0%/ 0%	0%/ 0%
C=C(F)C(=O)N1CCN(c2nc(OC[C@@H]3CCCN3C)nc3c2CN(Cc2nc(NC)ccc2Cl)C3)C[C@@H]1CC#N [1-361]	16%	61%
